# From PubChem BioAssay (NCI)
# Where “and” joins values, the source holds several entries; their conditions need not be identical. Equal values may be shown once.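 Test compounds were applied to cells in 96-well plates for 48 hours at 5 doses. Abbreviation: GI50, concentration required for 50% inhibition of growth. TGI: concentration producing complete growth inhibition.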
# Columns and labels:
# Assay in all cases: NCI anticancer screen, dose series, 48 h
# HCC-2998 colon = test system: HCC-2998 colon
# 786-0 renal = test system: 786-0 renal
# COLO 205 colon = test system: COLO 205 colon
# SNB-75 CNS = test system: SNB-75 CNS
# SK-OV-3 ovarian = test system: SK-OV-3 ovarian
# HCT-116 colon = test system: HCT-116 colon
# NCI-H226 lung = test system: NCI-H226 lung
# ACHN renal = test system: ACHN renal
# SF-539 CNS = test system: SF-539 CNS
# SR leukemia = test system: SR leukemia
Compound,GI50 (HCC-2998 colon),TGI (HCC-2998 colon),GI50 (786-0 renal),TGI (786-0 renal),GI50 (COLO 205 colon),TGI (COLO 205 colon),GI50 (SNB-75 CNS),TGI (SNB-75 CNS),GI50 (SK-OV-3 ovarian),TGI (SK-OV-3 ovarian),GI50 (HCT-116 colon),TGI (HCT-116 colon),GI50 (NCI-H226 lung),TGI (NCI-H226 lung),GI50 (ACHN renal),TGI (ACHN renal),GI50 (SF-539 CNS),TGI (SF-539 CNS),GI50 (SR leukemia),TGI (SR leukemia)
C[CH2][Sn]([CH2]C)([O]C(=O)c1cc(OC)c(OC)c(OC)c1)[O][Sn]([CH2]C)([CH2]C)[O]C(=O)c1cc(OC)c(OC)c(OC)c1,> 76.1 µM,> 100 µM,27.4 µM,> 59.8 µM,20.3 µM,43.6 µM,28.6 µM,> 88.7 µM,> 100 µM,> 100 µM,68.2 µM,> 100 µM,27.3 µM,57.9 µM,21.2 µM,40.8 µM,27.7 µM,74.9 µM,36.3 µM,> 100 µM
O=[N+]([O-])c1ccc([I+]c2ccccc2)cc1,3.22 µM,16.4 µM and 11.3 µM,1.78 µM,,1.37 µM,13.5 µM and 3.82 µM,1.66 µM,3.28 µM,1.73 µM,3.6 µM and 3.24 µM,1.83 µM,17.5 µM and 3.8 µM,1.45 µM,19.1 µM and 3.2 µM,5.15 µM,> 31.6 µM and 18.5 µM,1.77 µM,14.3 µM and 3.47 µM,,> 47.8 µM
COc1cc(-c2cn(-c3ccc(Cl)cc3)c(=O)n2-c2ccccc2)cc(OC)c1OC,> 56.3 µM,> 100 µM,> 83.1 µM,> 100 µM,51 µM,> 100 µM,5.51 µM,41.8 µM,74.9 µM,> 100 µM,45.8 µM,> 100 µM,82.1 µM,> 100 µM,34.8 µM,> 100 µM,61.5 µM,> 100 µM,,> 100 µM
Cn1c(=O)c2c(nc3n2C(CCl)CO3)n(C)c1=O (stereo not given),,> 100 µM,,> 100 µM,,> 100 µM,,> 100 µM,,> 100 µM,,> 100 µM,,> 100 µM,,> 100 µM,,> 100 µM,,> 100 µM
COc1cc2c(cc1OCCCN1CCN(CCCOc3cc4c(cc3OC)C(=O)C3CCC[C@H]3C=N4)CC1)N=C[C@@H]1CCCC1C2=O (stereo not given in full),7.21 µM,17.5 µM,3.84 µM,> 100 µM,9.29 µM,> 75.4 µM,24.8 µM,> 85.4 µM,63.5 µM,> 100 µM,12.1 µM,> 100 µM,13.2 µM,> 100 µM,55.7 µM,> 100 µM,0.614 µM,16.4 µM,0.367 µM,> 100 µM
Nc1nccc(C#Cc2cncnc2Nc2ccc(OCc3cccc(F)c3)c(Cl)c2)n1,4.1 µM,7.55 µM,7.69 µM,> 20.1 µM,3.96 µM,8.6 µM,5.75 µM,> 14.3 µM,7.22 µM,> 22.5 µM,3.48 µM,7.43 µM,4.14 µM,7.83 µM,4.2 µM,10.6 µM,5.58 µM,14.1 µM,3.18 µM,> 25 µM
CCN1C(=O)N(CC)C2C1NN=c1s/c(=C\c3ccc([N+](=O)[O-])cc3)c(=O)n12 (stereo not given),1.61 µM,> 100 µM,0.621 µM,> 100 µM,0.469 µM,11.8 µM,0.181 µM,0.783 µM,0.698 µM,49.5 µM,0.427 µM,> 100 µM,2.16 µM,> 71 µM,0.587 µM,> 100 µM,0.338 µM,2.83 µM,0.385 µM,> 66.4 µM
O=C1/C(=C\c2ccccc2)CN(C(=O)c2ccccc2F)C/C1=C\c1ccccc1,2.11 µM,3.66 µM,1.85 µM,3.56 µM,2.05 µM,4.03 µM,3.5 µM,14.5 µM,2.4 µM,5.34 µM,0.321 µM,1.03 µM,5.6 µM,21.5 µM,1.85 µM,3.46 µM,2 µM,4.12 µM,0.407 µM,3.45 µM
COc1cc(-c2[nH]ncc2CCCC(=O)Nc2ccccc2[N+](=O)[O-])ccc1O,,> 100 µM,,> 100 µM,,> 100 µM,,> 100 µM,,> 100 µM,,> 100 µM,,> 100 µM,,> 100 µM,,> 100 µM,,> 100 µM
Cn1cc(-c2ccc3c(c2)ncn3-c2ccc(CC(=O)Nc3cc(C(C)(C)C)on3)cc2)cn1,8.04 µM,> 100 µM,1.48 µM,> 84.6 µM,1.95 µM,5.24 µM,0.474 µM,2.87 µM,1.01 µM,4.33 µM,1.89 µM,7.43 µM,0.173 µM,3.27 µM,0.405 µM,10.9 µM,0.175 µM,1.74 µM,1.69 µM,8.49 µM
O=C(O)Cc1ccccc1,> 1000 µM,> 2000 µM,,> 2000 µM,> 1000 µM,> 2000 µM,> 1000 µM,> 2000 µM,> 1000 µM,> 2000 µM,> 1000 µM,> 1000 µM,> 1000 µM,> 2000 µM,> 1000 µM,> 2000 µM,> 1000 µM,> 2000 µM,,> 1000 µM
CN(C)CC1CCCC(CN(C)C)C1=O (stereo not given),,29.5 µM and 36 µM,,5.94 µM and 4.61 µM,,3.4 µM and 9.47 µM,,29.8 µM and 31.1 µM,17.8 µM and > 44 µM,31.8 µM and > 58.3 µM,1.66 µM and 3.36 µM,3.64 µM and 7.98 µM,18.6 µM and > 46.5 µM,35.6 µM and > 69.2 µM,,2.92 µM and 3.52 µM,11.3 µM and 1.75 µM,21.9 µM and 5.78 µM,0.254 µM and 0.803 µM,1.64 µM
CC1(C)CCC(CN2CCN(c3ccc(C(=O)NS(=O)(=O)c4ccc(NCC5CCOCC5)c([N+](=O)[O-])c4)c(Oc4cnc5[nH]ccc5c4)c3)CC2)=C(c2ccc(Cl)cc2)C1,2.1 µM,3.92 µM,3.54 µM,12.5 µM,1.95 µM,3.7 µM,3.71 µM,15.1 µM,3.16 µM,10.9 µM,3.36 µM,11.8 µM,2.36 µM,6.9 µM,2.93 µM,10.2 µM,2.41 µM,5.62 µM,3.21 µM,13 µM
C#CCSc1nnnn1-c1ccc(Br)c(C)c1,33.8 µM,> 100 µM,54.9 µM,> 100 µM,27.2 µM,84.3 µM,25.7 µM,> 100 µM,30 µM,> 100 µM,29.3 µM,> 100 µM,26.4 µM,> 100 µM,33.1 µM,> 100 µM,18.1 µM,36.5 µM,19.8 µM,> 100 µM
COc1ccc(C2=NN(c3ccc(S(N)(=O)=O)cc3)C(c3ccc(Cl)cc3)C2)c(O)c1 (stereo not given),2.62 µM,5.37 µM,2.22 µM,5.15 µM,3.59 µM,13.3 µM,5.87 µM,45.1 µM,8.23 µM,56 µM,2.32 µM,8.63 µM,5.6 µM,19.3 µM,3.58 µM,50.6 µM,10.1 µM,22.3 µM,0.897 µM,3.61 µM
CC1(C)CC[C@]2(C(=O)O)CCC3(C)C(=CCC4[C@@]5(C)CC[C@H](OC6OCC(O)C(O)C6OC6OC(CO)C(O)C(O)C6O)C(C)(C)C5CC[C@]43C)C2C1 (stereo not given in full),,3.16 µM,,4.02 µM,,3.49 µM,,4.6 µM,,4.25 µM,,7.06 µM,,3.38 µM,,3.64 µM,,4.31 µM,,5.87 µM
CC1OC(OC2C(OC3CCC4(C)C(CCC5(C)C4CC=C4C6CC(C)(C)CCC6(CO)C(O)CC45C)C3(C)C)OC(C(=O)O)C(OC3OC(COC4OC(CO)C(O)C(O)C4O)C(O)C(O)C3O)C2O)C(O)C(O)C1O (stereo not given),1.73 µM,4.45 µM,1.15 µM,3.01 µM,1.75 µM,4.39 µM,11.2 µM,23 µM,6.08 µM,18 µM,2.05 µM,9.21 µM,3.35 µM,16.1 µM,4.81 µM,16.8 µM,8.48 µM,20.5 µM,1.97 µM,5.63 µM
COc1cc2nc(-c3ccc(Cl)cc3)cc(OCCCN3CCC(O)CC3)c2cc1OC,1.95 µM,5.93 µM,3.31 µM,14.9 µM,0.532 µM,4.11 µM,1.76 µM,5.43 µM,3.17 µM,21.8 µM,1.44 µM,11.3 µM,1.39 µM,3.62 µM,2.43 µM,10.4 µM,2.28 µM,6.78 µM,0.373 µM,3.42 µM
CCN1CCC(O)(c2ccccc2)C(C(=O)c2ccccc2)C1 (stereo not given),,> 100 µM,,31 µM,,53.1 µM,,> 100 µM,,> 100 µM,,31 µM,,99.2 µM,,30.5 µM,,> 100 µM,,60.3 µM
